# Laboratory results as given in patent US12227520B2 (priority 2019, dated 2025).
# Where two headings read alike, the source gives them in different places.
# Tests used:
# HIV-1 (IIIB) = experiment: Antiviral assay in MT-4 cells (HIV MT-4 antiviral assay); format: cell-based; conditions: HIV-1 (IIIB) in MT-4 cells, 5 days incubation
# Summary of the method: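 Read-out is CellTiter-Glo chemiluminescence after 5-day culture at 37° C, giving protection of MT-4 cells from HIV-1 IIIB cytopathicity. Compounds tested in 1:3 dilution series in complete RPMI; controls were no drug, mock infection and 5 μM AZT.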
# uninfected MT-4 cells = experiment: Cytotoxicity assay in MT-4 cells; format: cell-based, human; conditions: uninfected MT-4 cells, 5 days incubation
# Summary of the method: (§1)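 For cytotoxicity, uninfected MT-4 cells were incubated with compounds 5 days at 37 °C, with 10 μM puromycin marking base cytotoxicity. Parallel plates used HIV-1 IIIB-infected (1:250 stock dilution) or mock cells with 5 μM AZT and no-drug controls. Read-out: CellTiter-Glo chemiluminescence.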
# pLai RLuc reporter virus = experiment: microbe, parasite or virus in culture; format: cell-based, HIV
# Summary of the method: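 Read-out is Renilla luciferase after 72 h at 37 °C in MT-4 cells infected 2 h beforehand with pLai RLuc reporter virus; compounds diluted 1:3.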
# [1] = Cytotoxicity assay in MT-4 cells; format: cell-based, human; conditions: human, uninfected MT-4 cells, 5 days incubation; read-out: CC50
# Summary of the method: as §1
# [2] = Human immunodeficiency virus 1, 72 h, read-out: Antiviral Serum Shift RLuc 50% HS, HS/CCM (RPMI media, 10% FBS, 50% HS, 1% P/S), 72-h incubation
# [3] = Human immunodeficiency virus 1, 72 h, read-out: Antiviral Serum Shift RLuc CCM, CCM (RPMI media, 10% FBS, 1% P/S), 72-h incubation
# [4] = read-out: Antiviral Serum Shift RLuc 50% HS, HS/CCM (RPMI media, 10% FBS, 50% HS, 1% P/S), 72-h incubation
# [5] = read-out: Antiviral Serum Shift RLuc CCM, CCM (RPMI media, 10% FBS, 1% P/S), 72-h incubation
# [6] = Human immunodeficiency virus 1, IIIB, MT4, 120 h, read-out: EC50
Compound,CC50 (uninfected MT-4 cells),EC50 (pLai RLuc reporter virus; [2]),EC50 (pLai RLuc reporter virus; [3]),EC50 (HIV-1 (IIIB); read-out: EC50),EC50 (pLai RLuc reporter virus; [4]),EC50 (pLai RLuc reporter virus; [5]),EC50 (HIV-1 (IIIB); [6]),CC50 at 5 days [1],further results
"O=C(NCc1ccc(F)cc1F)c1cn2c(c(O)c1=O)C(=O)N1CC2CCc2cc(F)c(F)cc21 (single isomer, unassigned) [Example 50-1]",> 13500 nM,0.948 nM,0.265 nM,,,,,,EC50 (HIV-1 (IIIB)): 1.39 nM
"O=C(NCc1c(F)cc(F)cc1F)c1cn2c(c(O)c1=O)C(=O)N1CCCC(CF)C2C1 (single isomer, unassigned) [Example 194-3, 6-(fluoromethyl)-12-hydroxy-1,11-dioxo-N-(2,4,6-trifluorobenzyl)-1,4,5,6,7,11-hexahydro-3H-2,7-methanopyrido[1,2-a][1,4]diazonine-10-carboxamide]",11500 nM,,,1.28 nM,139 nM,0.554 nM,,,
"O=C(NCc1ccc(F)cc1F)c1cn2c(c(O)c1=O)C(=O)N1CC2CCc2cc(F)ccc21 (single isomer, unassigned) [Example 55-2]",7330 nM,1.32 nM,0.312 nM,,,,,,EC50 (HIV-1 (IIIB)): 1.8 nM
"CC1CCCN2CC1n1cc(C(=O)NCc3ccc(F)cc3F)c(=O)c(O)c1C2=O (stereo not drawn) [Example 17-2b, N-(2,4-difluorobenzyl)-12-hydroxy-6-methyl-1,11-dioxo-1,4,5,6,7,11-hexahydro-3H-2,7-methanopyrido[1,2-a][1,4]diazonine-10-carboxamide]",11000 nM,,,1.2 nM,101 nM,0.31 nM,,,
"O=C(NCc1c(F)cc(F)cc1F)c1cn2c(c(O)c1=O)C(=O)N1CC2CCc2ccccc21 (single isomer, unassigned) [Example 38-2]",12800 nM,,,0.93 nM,,,,,
"O=C(NCc1ccc(F)cc1F)c1cn2c(c(O)c1=O)C(=O)N1C[C@H](F)CC[C@H]2C1 (single isomer, unassigned) [Example 53-4]",> 44400 nM,,,4.72 nM,18.3 nM,0.696 nM,,,
"O=C(NCc1c(F)cc(F)cc1F)c1cn2c(c(O)c1=O)C(=O)N1CCCC(CF)C2C1 (single isomer, unassigned) [Example 194-4, 6-(fluoromethyl)-12-hydroxy-1,11-dioxo-N-(2,4,6-trifluorobenzyl)-1,4,5,6,7,11-hexahydro-3H-2,7-methanopyrido[1,2-a][1,4]diazonine-10-carboxamide]",11300 nM,,,1.75 nM,3.48 nM,0.397 nM,,,
"O=C(NCc1c(F)cc(F)cc1F)c1cn2c(c(O)c1=O)C(=O)N1CCCC(CF)C2C1 (single isomer, unassigned) [Example 194-2, 6-(fluoromethyl)-12-hydroxy-1,11-dioxo-N-(2,4,6-trifluorobenzyl)-1,4,5,6,7,11-hexahydro-3H-2,7-methanopyrido[1,2-a][1,4]diazonine-10-carboxamide]",10500 nM,,,1.5 nM,2.99 nM,0.378 nM,,,
"(7R,13R)—N-(2,4-difluorobenzyl)-12-hydroxy-13-methyl-1,11-dioxo-1,4,5,6,7,11-hexahydro-3H-2,7-methanopyrido[1,2-a][1,4]diazonine-10-carboxamide [Example 7]",25400 nM,,,19.9 nM,,,,,
"O=C(NCc1ccc(F)cc1F)c1cn2c(c(O)c1=O)C(=O)N1C[C@@H]2CCC[C@@H]1CF [Example 181, (3R,7S)—N-(2,4-difluorobenzyl)-3-(fluoromethyl)-12-hydroxy-1,11-dioxo-1,4,5,6,7,11-hexahydro-3H-2,7-methanopyrido[1,2-a][1,4]diazonine-10-carboxamide]",9710 nM,,,1.08 nM,7.65 nM,0.385 nM,,,
"O=C(NCc1c(F)cc(F)cc1F)c1cn2c(c(O)c1=O)C(=O)N1C[C@@H]2CCC[C@@H]1CF [Example 180, (3R,7S)-3-(fluoromethyl)-12-hydroxy-1,11-dioxo-N-(2,4,6-trifluorobenzyl)-1,4,5,6,7,11-hexahydro-3H-2,7-methanopyrido[1,2-a][1,4]diazonine-10-carboxamide]",10400 nM,,,1.21 nM,13.5 nM,0.32 nM,,,
"CC[C@@]12CCCCN(C1)C(=O)c1c(O)c(=O)c(C(=O)NCc3ccc(F)cc3F)cn12 [Example 134-2, (7R)—N-(2,4-difluorobenzyl)-7-ethyl-12-hydroxy-1,11-dioxo-1,4,5,6,7,11-hexahydro-3H-27-methanopyrido[1,2-a][1,4]diazonine-10-carboxamide]",10600 nM,,,5.7 nM,,,,,
"(3S,7S)-5-fluoro-12-hydroxy-3-methyl-1,11-dioxo-N-(2,4,6-trifluorobenzyl)-1,6,7,11-tetrahydro-3H-2,7-methanopyrido[1,2-a][1,4]diazonine-10-carboxamide [Example 118-2]",11600 nM,,,1.17 nM,,,,,"EC50 (pLai RLuc reporter virus; CCM (RPMI media, 10% FBS, 1% P/S), 72-h incubation, read-out: Antiviral Serum Shift RLuc CCM): 0.249 nM; EC50 (pLai RLuc reporter virus; HS/CCM (RPMI media, 10% FBS, 50% HS, 1% P/S), 72-h incubation, read-out: Antiviral Serum Shift RLuc 50% HS): 0.507 nM"
"O=C(NCc1ccc(F)cc1F)c1cn2c(c(O)c1=O)C(=O)N1CC2CCc2cc(F)c(F)cc21 (single isomer, unassigned) [Example 50-2]",32300 nM,,,,,,,,EC50 (HIV-1 (IIIB)): 32.5 nM
"O=C(NCc1ccc(F)cc1F)c1cn2c(c(O)c1=O)C(=O)N1CCC[C@H]3C[C@@]32C1 [Example 65-2, (1aS,11aS)—N-(2,4-difluorobenzyl)-7-hydroxy-6,8-dioxo-1a,2,3,4,6,8-hexahydro-1H-5,11a-methanocyclopropa[h]pyrido[1,2-a][1,4]diazonine-9-carboxamide]",,3.47 nM,0.341 nM,,,,1.66 nM,8820 nM,
"C[C@@H]1CC[C@H]2C[C@@]23CN1C(=O)c1c(O)c(=O)c(C(=O)NCc2c(F)cc(F)cc2F)cn13 [Example 150, (1aS,4R,11aS)-7-hydroxy-4-methyl-6,8-dioxo-N-(2,4,6-trifluorobenzyl)-1a,2,3,4,6,8-hexahydro-1H-5,11a-methanocyclopropa[h]pyrido[1,2-a][1,4]diazonine-9-carboxamide]",,4.41 nM,0.171 nM,,,,1.98 nM,8490 nM,
"O=C(NCc1ccc(F)cc1F)c1cn2c(c(O)c1=O)C(=O)N1CC/C=C\C[C@H]2C1 [Example 44-2, (8S,Z)—N-(2,4-difluorobenzyl)-13-hydroxy-1,12-dioxo-1,3,4,7,8,12-hexahydro-2,8-methanopyrido[1,2-a][1,4]diazecine-11-carboxamide]",,36.8 nM,0.264 nM,,,,2.36 nM,15100 nM,
"C[C@H]1[C@H](F)CC[C@H]2CN1C(=O)c1c(O)c(=O)c(C(=O)NCc3c(F)cc(F)cc3F)cn12 [Example 158, (3S,4R,7S)-4-fluoro-12-hydroxy-3-methyl-1,11-dioxo-N-(2,4,6-trifluorobenzyl)-1,4,5,6,7,11-hexahydro-3H-2,7-methanopyrido[1,2-a][1,4]diazonine-10-carboxamide]",,49.7 nM,0.306 nM,,,,1.67 nM,8830 nM,
"O=C(NCc1ccc(F)c(Cl)c1F)c1cn2c(c(O)c1=O)C(=O)N1CCCC[C@@H]2C1 [Example 35, (7R)—N-(3-chloro-2,4-difluorobenzyl)-12-hydroxy-1,11-dioxo-1,4,5,6,7,11-hexahydro-3H-2,7-methanopyrido[1,2-a][1,4]diazonine-10-carboxamide]",,44.4 nM,0.423 nM,,,,1.5 nM,4960 nM,
"CC1=CC[C@H]2CN(C(=O)c3c(O)c(=O)c(C(=O)NCc4c(F)cc(F)cc4F)cn32)[C@H]1C [Example 144-2, (3S,7S)-12-hydroxy-3,4-dimethyl-1,11-dioxo-N-(2,4,6-trifluorobenzyl)-1,6,7,11-tetrahydro-3H-2,7-methanopyrido[1,2-a][1,4]diazonine-10-carboxamide]",,4.46 nM,0.469 nM,,,,1.98 nM,13900 nM,
"O=C(NCc1c(F)cc(F)cc1F)c1cn2c(c(O)c1=O)C(=O)N1C[C@H]2CCC(F)(F)C1 [Example 3-1, (7R)-4,4-difluoro-12-hydroxy-1,11-dioxo-N-(2,4,6-trifluorobenzyl)-1,4,5,6,7,11-hexahydro-3H-2,7-methanopyrido[1,2-a][1,4]diazonine-10-carboxamide]",,71.5 nM,0.85 nM,,,,4.2 nM,> 40200 nM,
"CC[C@]12CCCCN(C1)C(=O)c1c(O)c(=O)c(C(=O)NCc3ccc(F)cc3F)cn12 [Example 134-1, (7S)—N-(2,4-difluorobenzyl)-7-ethyl-12-hydroxy-1,11-dioxo-1,4,5,6,7,11-hexahydro-3H-27-methanopyrido[1,2-a][1,4]diazonine-10-carboxamide]",16200 nM,,,3.29 nM,,,,,
